{
  "source": "paper PMC7413254",
  "about": "(Nature Communications, 2020)",
  "key": {"non-expressing oocytes": {"test_system": "non-expressing oocytes", "experiment": "cells", "type": "cell-based, Xenopus laevis", "conditions": "Xenopus laevis, non-expressing oocytes, total [3H]CQ transport, normalised to the oocyte type control, read-out: Uptake of [3H]CQ (% non-expressing oocyte control), cis-inhibition", "summary_of_the_method": "(§1)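 Washed oocytes (ten per treatment) were exposed to label in pH 5.5 ND96 for 1.5 h at 27.5 °C. Buffer was then removed, cells rinsed in ice-cold ND96, lysed in SDS and counted.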"}, "PfCRT^Ecu1110": {"target": "PfCRT^Ecu1110 (Plasmodium falciparum, UniProt Q9N623, A220S/I356L/K76T/N326D)", "sequence (Q9N623 whole entry A220S/I356L/K76T/N326D)": "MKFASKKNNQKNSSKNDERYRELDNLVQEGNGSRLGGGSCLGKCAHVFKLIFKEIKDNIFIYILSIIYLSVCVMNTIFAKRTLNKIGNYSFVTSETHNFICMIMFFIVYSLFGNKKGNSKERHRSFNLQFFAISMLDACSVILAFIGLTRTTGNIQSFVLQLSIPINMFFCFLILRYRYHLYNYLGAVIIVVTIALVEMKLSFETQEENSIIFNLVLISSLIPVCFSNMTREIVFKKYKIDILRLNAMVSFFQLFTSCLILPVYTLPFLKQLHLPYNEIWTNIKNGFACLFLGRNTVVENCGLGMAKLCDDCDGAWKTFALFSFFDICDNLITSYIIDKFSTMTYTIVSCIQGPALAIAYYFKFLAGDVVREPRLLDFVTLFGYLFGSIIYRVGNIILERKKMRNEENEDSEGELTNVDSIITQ", "experiment": "[3H]CQ uptake into Xenopus oocytes, cis-inhibition by unlabelled solute", "type": "cell-based", "summary_of_the_method": "as §1"}, "PfCRT^Dd2": {"target": "PfCRT^Dd2 (Plasmodium falciparum, UniProt Q9N623, A220S/I356T/K76T/M74I/N326S/N75E/Q271E/R371I)", "sequence (Q9N623 whole entry A220S/I356T/K76T/M74I/N326S/N75E/Q271E/R371I)": "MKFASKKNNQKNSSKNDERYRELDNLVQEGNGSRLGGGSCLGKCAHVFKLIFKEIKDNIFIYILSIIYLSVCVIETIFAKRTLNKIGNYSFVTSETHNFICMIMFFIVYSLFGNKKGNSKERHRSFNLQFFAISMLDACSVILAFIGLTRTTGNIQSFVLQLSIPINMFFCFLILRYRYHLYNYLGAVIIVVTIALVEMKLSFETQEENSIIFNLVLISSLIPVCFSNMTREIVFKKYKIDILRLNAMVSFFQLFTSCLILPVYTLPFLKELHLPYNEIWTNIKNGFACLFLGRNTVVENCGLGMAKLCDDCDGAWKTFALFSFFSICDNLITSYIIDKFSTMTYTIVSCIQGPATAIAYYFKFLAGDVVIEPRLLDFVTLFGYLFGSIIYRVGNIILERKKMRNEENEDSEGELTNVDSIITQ", "experiment": "[3H]CQ uptake into Xenopus oocytes, cis-inhibition by unlabelled solute", "type": "cell-based", "summary_of_the_method": "as §1"}, "PfCRT^3D7": {"target": "PfCRT^3D7 (Plasmodium falciparum, UniProt Q8IBZ9)", "sequence (Q8IBZ9 59-398)": "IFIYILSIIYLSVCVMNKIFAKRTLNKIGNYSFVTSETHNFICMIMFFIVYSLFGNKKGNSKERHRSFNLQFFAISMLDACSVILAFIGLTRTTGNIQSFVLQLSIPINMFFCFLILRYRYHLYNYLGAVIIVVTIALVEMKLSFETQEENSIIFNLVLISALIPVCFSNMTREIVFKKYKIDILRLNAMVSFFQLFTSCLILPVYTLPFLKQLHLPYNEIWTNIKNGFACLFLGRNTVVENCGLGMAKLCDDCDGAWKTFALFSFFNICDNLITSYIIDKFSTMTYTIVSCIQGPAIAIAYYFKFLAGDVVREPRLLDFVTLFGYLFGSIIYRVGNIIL", "experiment": "cell-based", "type": "cell-based", "conditions": "total [3H]CQ transport; for inhibition at 500 µM: [test solute] = 0.5 mM; for inhibition at 1000 µM: [test solute] = 1 mM; for inhibition at 2000 µM: [test solute] = 2 mM", "summary_of_the_method": "as §1"}, "[1]": {"conditions": "read-out: PfCRT-mediated [3H]CQ transport, cis-inhibition (% PfCRTEcu1110 control)"}, "[2]": {"conditions": "read-out: Uptake of [3H]CQ (% PfCRTDd2 control), cis-inhibition, PfCRTEcu1110, SEM"}, "[3]": {"conditions": "read-out: Uptake of [3H]CQ (% PfCRTEcu1110 control), cis-inhibition"}, "[4]": {"conditions": "read-out: [3H]CQ transport (% PfCRTEcu1110 control), cis-inhibition, PfCRTEcu1110, SEM"}, "[5]": {"conditions": "read-out: PfCRT-mediated [3H]CQ transport, cis-inhibition (% PfCRTDd2 control)"}, "[6]": {"conditions": "read-out: Uptake of [3H]CQ (% PfCRTDd2 control), cis-inhibition"}, "[7]": {"conditions": "read-out: Uptake of [3H]CQ (% PfCRTDd2 control), cis-inhibition, PfCRTDd2, SEM"}, "[8]": {"conditions": "read-out: [3H]CQ transport (% PfCRTDd2 control), cis-inhibition, PfCRTDd2, SEM"}, "[9]": {"conditions": "PfCRT3D7 oocytes, normalised to the oocyte type control, read-out: Uptake of [3H]CQ (% PfCRT3D7 control), cis-inhibition"}, "[10]": {"conditions": "mean ± SEM, SEM, read-out: Uptake of [3H]CQ (% PfCRTDd2 control), cis-inhibition, PfCRT3D7"}},
  "note": "Read-outs that look alike come from different tables or passages of the source.",
  "data": [
    {"smiles": "N[C@@H](CS)C(=O)O", "note": "[L-cysteine]", "values": [
      {"measurement": "inhibition at 500 µM", "setting": "non-expressing oocytes; [test solute] = 0.5 mM", "result": "99 ± 5.3", "unit": "%"},
      {"measurement": "inhibition at 1000 µM", "setting": "non-expressing oocytes; [test solute] = 1 mM", "result": "100 ± 4.6", "unit": "%"},
      {"measurement": "inhibition at 2000 µM", "setting": "non-expressing oocytes; [test solute] = 2 mM", "result": "99 ± 3.5", "unit": "%"},
      {"measurement": "inhibition at 500 µM", "setting": "PfCRT^Ecu1110; [1]", "result": "94 ± 1.6", "unit": "%"},
      {"measurement": "inhibition at 1000 µM", "setting": "PfCRT^Ecu1110; [1]", "result": "87 ± 2.6", "unit": "%"},
      {"measurement": "inhibition at 2000 µM", "setting": "PfCRT^Ecu1110; [1]", "result": "98 ± 4.5", "unit": "%"},
      {"measurement": "inhibition at 500 µM", "setting": "PfCRT^Ecu1110; [2]", "result": "31 ± 1", "unit": "%"},
      {"measurement": "inhibition at 1000 µM", "setting": "PfCRT^Ecu1110; [2]", "result": "29 ± 1.5", "unit": "%"},
      {"measurement": "inhibition at 2000 µM", "setting": "PfCRT^Ecu1110; [2]", "result": "33 ± 1.4", "unit": "%"},
      {"measurement": "inhibition at 500 µM", "setting": "PfCRT^Ecu1110; [3]", "result": "95 ± 4.2", "unit": "%"},
      {"measurement": "inhibition at 1000 µM", "setting": "PfCRT^Ecu1110; [3]", "result": "89 ± 5.5", "unit": "%"},
      {"measurement": "inhibition at 2000 µM", "setting": "PfCRT^Ecu1110; [3]", "result": "100 ± 7.1", "unit": "%"},
      {"measurement": "inhibition at 500 µM", "setting": "PfCRT^Ecu1110; [4]", "result": "28 ± 1.1", "unit": "%"},
      {"measurement": "inhibition at 1000 µM", "setting": "PfCRT^Ecu1110; [4]", "result": "26 ± 1.5", "unit": "%"},
      {"measurement": "inhibition at 2000 µM", "setting": "PfCRT^Ecu1110; [4]", "result": "30 ± 1.7", "unit": "%"},
      {"measurement": "inhibition at 500 µM", "setting": "PfCRT^Dd2; [5]", "result": "94 ± 4.1", "unit": "%"},
      {"measurement": "inhibition at 1000 µM", "setting": "PfCRT^Dd2; [5]", "result": "95 ± 3.6", "unit": "%"},
      {"measurement": "inhibition at 2000 µM", "setting": "PfCRT^Dd2; [5]", "result": "95 ± 2.8", "unit": "%"},
      {"measurement": "inhibition at 500 µM", "setting": "PfCRT^Dd2; [6]", "result": "97 ± 9.2", "unit": "%"},
      {"measurement": "inhibition at 2000 µM", "setting": "PfCRT^Dd2; [6]", "result": "97 ± 3.1", "unit": "%"},
      {"measurement": "inhibition at 500 µM", "setting": "PfCRT^Dd2; [7]", "result": "97 ± 9.2", "unit": "%"},
      {"measurement": "inhibition at 1000 µM", "setting": "PfCRT^Dd2; [7]", "result": "96 ± 3.5", "unit": "%"},
      {"measurement": "inhibition at 2000 µM", "setting": "PfCRT^Dd2; [7]", "result": "97 ± 3.1", "unit": "%"},
      {"measurement": "inhibition at 1000 µM", "setting": "PfCRT^Dd2; [8]", "result": "95 ± 3.6", "unit": "%"},
      {"measurement": "inhibition at 2000 µM", "setting": "PfCRT^Dd2; [8]", "result": "95 ± 2.8", "unit": "%"},
      {"measurement": "inhibition at 500 µM", "setting": "PfCRT^3D7; [9]", "result": "99 ± 3.2", "unit": "%"},
      {"measurement": "inhibition at 1000 µM", "setting": "PfCRT^3D7; [9]", "result": "100 ± 3.6", "unit": "%"},
      {"measurement": "inhibition at 2000 µM", "setting": "PfCRT^3D7; [9]", "result": "99 ± 4.2", "unit": "%"},
      {"measurement": "inhibition at 500 µM", "setting": "PfCRT^3D7; [10]", "result": "3.4 ± 0.05", "unit": "%"},
      {"measurement": "inhibition at 1000 µM", "setting": "PfCRT^3D7; [10]", "result": "2.5 ± 0.05", "unit": "%"},
      {"measurement": "inhibition at 2000 µM", "setting": "PfCRT^3D7; [10]", "result": "3.1 ± 0.08", "unit": "%"}
    ]}
  ]
}
